Reference: patent US12622892B2, “Methods for treating endometriosis” (THE TEXAS A&M UNIVERSITY SYSTEM, priority 2020, dated 2026)

Tests used:
ESECT-7 cells [1] = experiment: α-SMA immunofluorescence, ESECT-7; format: cell-based, human; conditions: vs control, FIG. 5A
Description: Immunofluorescence: ESECT-7 and ESECT-40 cells were seeded in Nunc chambered cover-glass followed by various drug treatments. The cells were fixed with 4% paraformaldehyde in PBS for 20 minutes at 37° C. Cells were then blocked and incubated overnight with primary α-SMA antibody in the buffer (5% bovine serum albumin in PBS) at 4° C., followed by incubation with Alexa Fluor conjugated secondary antibody at a dilution of 1:250 for 2 hours at room temperature. Finally, cells were observed using a Zeiss confocal fluorescence microscope.

ESECT-7 cells [2] = experiment: Quantitative real-time PCR of fibrosis markers, ESECT-7; format: cell-based, human; conditions: 24 hours, 20-25 μM DIM-C-pPhOH, 5-10 μM DIM-C-pPhOH-3-Cl-5-OCH3, vs DMSO control, FIG. 5C
Description: Quantitative real-time PCR: Total RNA was isolated from cultured cells according to the manufacturer's instructions (Zymo Research, Irvine, CA). The concentration and purity of the RNA samples were determined using a nanodrop spectrophotometer. Total RNA was reverse transcribed using iTaq Universal SYBR Green One-Step Kit (Thermo Fisher Scientific, Grand Island, NY) using the manufacturer's protocol with the CFX384 real-time PCR System (Bio-Rad). The comparative cycle threshold method was used for relative quantitation of samples. Values for each gene were normalized to expression levels of TATA-binding protein. The sequences of the primers used for real-time PCR included the following: α-SMA, 5′-GGCCGAGATCTCACTGACTAC-3′ (sense, SEQ ID NO. 13) and 5′-TTC ATG GAT GCC AGC AGA-3′ (antisense, SEQ ID NO. 14); COL1A1, 5′-CAG CCG CTT CAC CTA CAG C-3′ (sense, SEQ ID NO. 15) and 5′-TTTTGTATTCAATCAGTGTCTTGCC-3′ (antisense, SEQ ID NO. 16); CTGF, 5′-TTGGCCCAGACCCAACTATG-3′(sense, SEQ ID NO. 17) and 5′-CAGGAGGCGTTGTCATTGGT-3′ (antisense, SEQ ID NO. 18); FN, 5′-GGG AGC CTC GAA GAG C-3′ (sense 19) and 5′-AACAAGTACAAACCAACGCA-3′ (antisense, SEQ ID NO. 20) and TATA-binding protein, 5′-GATCAGAACAACAGCCTGCC-3′ (sense, SEQ ID NO. 21) and 5′-TTCTGAATAGGCTGTGGGGT-3′ […].

NR4A1 = target: T1, NR4A1 (Mus musculus, UniProt P12813); conditions: C2C12 muscle cells; cited from earlier work
T1 construct: endogenous in cells; host or cells: C2C12 muscle cells
T1 sequence (P12813 whole entry): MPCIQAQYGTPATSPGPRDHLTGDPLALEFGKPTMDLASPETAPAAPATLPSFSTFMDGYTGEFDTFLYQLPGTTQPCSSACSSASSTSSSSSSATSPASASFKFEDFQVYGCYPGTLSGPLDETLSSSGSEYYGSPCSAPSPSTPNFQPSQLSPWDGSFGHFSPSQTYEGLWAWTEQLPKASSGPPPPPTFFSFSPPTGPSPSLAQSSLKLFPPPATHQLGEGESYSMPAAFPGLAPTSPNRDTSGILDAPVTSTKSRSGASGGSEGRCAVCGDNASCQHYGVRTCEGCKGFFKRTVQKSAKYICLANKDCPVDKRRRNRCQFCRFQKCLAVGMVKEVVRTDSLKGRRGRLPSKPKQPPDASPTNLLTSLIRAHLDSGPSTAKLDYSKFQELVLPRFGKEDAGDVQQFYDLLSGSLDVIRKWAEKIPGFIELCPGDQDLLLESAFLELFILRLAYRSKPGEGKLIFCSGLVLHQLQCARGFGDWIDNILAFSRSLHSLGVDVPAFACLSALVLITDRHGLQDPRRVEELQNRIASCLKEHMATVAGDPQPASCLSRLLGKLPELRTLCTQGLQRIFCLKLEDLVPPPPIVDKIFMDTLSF

IHEECs = experiment: Expression of fibrosis markers in IHEECs; format: cell-based, human; conditions: 24 hours, vs control, FIG. 6B
human ectopic lesions = experiment: Endometriosis mouse model by hetero-transplantation with human endometrial cells in SCID mice; format: in vivo; conditions: SCID mice with HECs carrying luciferase; 25 mg/kg once a day, 30 days; p=0.022; FIGS. 9B, 9C
From the text: Endometriosis Mouse Model by Hetero-transplantation with immortalized human endometrial cells: The luciferase stable immortalized human endometrial epithelial cells […] and luciferase stable immortalized human endometrial stromal cells (LIHESCs) were generated from IHESCs isolated from endometria obtained from hysterectomies for benign conditions and IHEECs generated from ovarian endometrioma by transducing lentivirus-expressing luciferase and then the expression of luciferase was validated with the luciferase activity assay. Matrigel contained the mixture of LIHESCs (1×10^6 cells) and LIHEECs (1×10^6 cells) were injected into the peritoneal cavity of female severe combined immune deficiency (SCID) mice (6 weeks old) to induce endometriosis. Henceforth, we refer to the mixture of LIHEECs and LIHESCs as human endometrial cells (HEC). […] To noninvasively determine the progression of human ectopic lesions, we injected mice with 150 mg/kg of D-Luciferin intra-peritoneally 5 min before imaging, and then determined luciferase activities of human ectopic lesions in mice using In Vivo Image System.

GAL4-NR4A1 = target: T2, GAL4-NR4A1 (Homo sapiens, UniProt P22736); experiment: Luciferase assay, GAL4-NR4A1 chimera/UAS-luc in ESECT-7 cells; format: cell-based; conditions: ESECT-7 cells transfected with GAL4-NR4A1 chimera/UAS-luc; 18 hr treatment; FIG. 2A
T2 construct: GAL4 (fusion partner); expressed in transfected cells; host or cells: ESECT-7 patient-derived endometriotic cells
T2 sequence (P22736 with tags, fused parts or gaps): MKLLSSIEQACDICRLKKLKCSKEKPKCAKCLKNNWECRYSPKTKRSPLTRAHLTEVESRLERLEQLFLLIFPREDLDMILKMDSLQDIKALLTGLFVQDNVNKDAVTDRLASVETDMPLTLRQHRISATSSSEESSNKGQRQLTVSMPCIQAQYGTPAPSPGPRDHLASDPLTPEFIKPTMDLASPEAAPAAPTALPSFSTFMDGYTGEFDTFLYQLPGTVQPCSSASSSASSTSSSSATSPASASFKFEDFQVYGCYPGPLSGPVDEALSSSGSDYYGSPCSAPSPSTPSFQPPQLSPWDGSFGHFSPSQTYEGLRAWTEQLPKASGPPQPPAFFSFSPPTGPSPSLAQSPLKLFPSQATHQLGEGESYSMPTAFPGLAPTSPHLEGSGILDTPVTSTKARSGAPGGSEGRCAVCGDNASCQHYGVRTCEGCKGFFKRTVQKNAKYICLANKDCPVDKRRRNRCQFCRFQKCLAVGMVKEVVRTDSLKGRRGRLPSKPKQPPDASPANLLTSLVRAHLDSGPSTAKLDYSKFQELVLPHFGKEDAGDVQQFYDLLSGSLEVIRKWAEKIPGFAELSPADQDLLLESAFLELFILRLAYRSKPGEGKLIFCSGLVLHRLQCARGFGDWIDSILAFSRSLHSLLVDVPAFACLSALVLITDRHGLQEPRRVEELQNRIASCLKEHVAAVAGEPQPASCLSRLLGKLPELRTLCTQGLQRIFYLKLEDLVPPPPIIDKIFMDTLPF
Description: Luciferase assay: ESECT-7 and ESECT-40 cells were plated on 12-well plates in DMEM/F12 supplemented with 2.5% charcoal-stripped FBS. After overnight attachment and growth, various amounts of DNA [i.e., UASx5-Luc (500 ng), GAL4-NR4A1 (50 ng), NBREx3-Luc (800 ng), NurREx3-Luc (800 ng) and Flag-NR4A1 (80 ng)] were co-transfected into each well using Lipofectamine 2000 reagent (Invitrogen, Carlsbad, CA) according to the manufacturer's protocol. After 6 hr of transfection, cells were treated with plating medium (as above) containing either solvent (DMSO) or indicated concentrations of the compound for 18 hr. Cells were then lysed and cell extracts were used for chemiluminescence quantification of luciferase activity. Luciferase activity values were normalized against corresponding protein concentration values determined by Bradford assay. Both GAL4- and Flag-NR4A1 constructs contain full-length NR4A1 coding sequence and all the plasmids used in this study were previously described.

Ishikawa cells = experiment: Expression of fibrosis markers in Ishikawa cells; format: cell-based; conditions: 24 hours, FIG. 6D

From the text for mouse ectopic lesions: Endometriosis Mouse Model with Auto-transplantation: One uterine horn was isolated from a female mouse (6 weeks old, C57BL/6J) under anesthesia, and then the uterine horn was longitudinally cut. Using a 2-mm dermal biopsy punch, one endometrial fragment was obtained from the isolated uterus and subsequently sutured to the mesenteric membrane attached to the intestine of the same mouse. The abdominal incision then was closed by suture. Before harvesting ectopic lesions, the mouse estrous cycle was determined using vaginal cytology. At the estrus stage in the 3rd week after endometriosis induction, ectopic lesions were isolated from mice with endometriosis. As the endometriosis control, uteri were isolated from C57BL/6J female mice without endometriosis at the estrus stage at 10 weeks of age.
Endometriosis Treatment with C-DIM: Endometriosis was induced to mice with auto- and hetero-transplantation method as described above. […] In the case of the auto-transplantation model, we isolated mouse ectopic lesions treated with C-DIM versus the vehicle from mice with endometriosis at the estrus stage in the 3rd week after drug treatment and then determined their volume. In the case of the hetero-transplantation model, we determined the luciferase activity of the human ectopic lesions treated with C-DIM versus vehicle in SCID mice with endometriosis during the drug treatment.

COc1cc(C(c2c[nH]c3ccccc23)c2c[nH]c3ccccc23)cc(Cl)c1O [DIM-C-pPhOH-3-Cl-5-OCH3]
expression of SMA levels (ESECT-7 cells [1]): decreased expression of SMA levels
mRNA levels of fibrosis markers (FN, Col1A1, CTGF) (ESECT-7 cells [2]): decreased mRNA levels
NR4A1 agonist activity, induction of genes involved in glucose uptake (NR4A1): worked as NR4A1 agonists
expression of fibrosis markers (α-SMA, COL1A1, FN, CTGF) (IHEECs): decreased expression of fibrosis markers
reduction of luciferase activity in human ectopic lesions compared with the vehicle (human ectopic lesions): 13.4 fold
intrinsic transcriptional activity of GAL4-NR4A1 (GAL4-NR4A1): inhibited the intrinsic transcriptional activity
expression of fibrosis markers (α-SMA, COL1A1, FN, CTGF) (Ishikawa cells): decreased expression of fibrosis markers
reduction of the volume of ectopic lesions compared to the vehicle (mouse ectopic lesions; 25 mg/kg every day, intraperitoneal, three weeks, p=0.015, FIG. 8D): 2.4 fold
bodyweight of mice as compared to the vehicle (mouse ectopic lesions; mouse, in vivo): did not change
